The values that follow come from patent publication US20180207138A1, “METHODS FOR THE TREATMENT OF TREMORS BY POSITIVE MODULATION OF SK CHANNELS” (Cadent Therapeutics, Inc., priority 2017, published 2018).

Molecules are shown by their SMILES. Like-named read-outs stand apart in the source and are kept apart here.

Data set [1] has as its system Harmaline-induced tremor. The note with it: for inhibition of tremors (tremor events): FIG. 1; for Minimally Efficacious Dose: oral dosing 30 min before 10 mg/Kg ip Harmaline, tremor events over 60 min. How it is done:
The structure of each of these compounds is duplicated below.
Animals were administered with either Vehicle or compound (orally) 30 minutes prior to Harmaline administration (t=−30 minutes). Animals were then dosed ip with 10 mg/Kg Harmaline HCl in isotonic saline (t=0 minutes). Immediately following Harmaline administration, animals were monitored for 1 hour (t=0-60 minutes) to quantify the number of tremor events.
Tremor events were quantified via automated capture of forelimb tremor activity and confirmed by visual observation. Prior to testing, animals were fitted with a small metal band (0.5 g) on the right forepaw and acclimated to the testing apparatus for one hour. Immediately following Harmaline administration, animals were placed in the testing apparatus and tremor events were quantified for 60 minutes. A tremor event signal was generated when the transmitter band on the animal moved within the electromagnetic field generated by a loop antenna within the testing apparatus. Outputs from the amplifier were digitized at a sampling rate of 1,000 Hz and the signal was processed and analyzed using LabView software (National Instruments). […] Data were analyzed in one-minute bins over the course of the test and presented as the sum of tremor events over the entire 60 minute test.

For data set [2] the following is noted: male, Sprague Dawley, rat, in vivo; for Measured Brain Concentration: po.
Experimental: (§1) It is calculated as follows: CFB=CMB×BFF, where CMB is the concentration of compound measured by mass spectrometry from brains harvested immediately following tremor recording (Table 1, “Measured Brain Concentration”). CFB is the amount of free compound not complexed with protein and therefore free to interact with the SK2 channel (Table 1, “Calculated Free Brain Concentration”). BFF is average free fraction of compound as measured by equilibrium dialysis (Table 1, “Brain Free Fraction”). This was performed by using 1 μM of compound with 10% brain tissue homogenate in phosphate buffer saline. Incubation time was 5 hours at 37° C. and detection was by LC-MS/MS. Reference compound was carbazepine. Free drug in brain available to interact with SK2 channels (CFB) is arrived at by multiplying the measured total brain level (CMB) by the average free fraction (BFF).
Data set [3] in a line: in vitro. The note with it: brain homogenate.
Experimental: as §1
The subject of data set [4] is harmaline-induced tremor. The note with it: for tremor, power spectrum in 10-14 Hz band: 5 mg/kg ip harmaline, 30 minutes; for percent Motion Power (% MP): FIG. 3. The procedure:
Whole body tremor was measured by a San Diego Instruments Tremor Monitor (San Diego, Calif., USA). […] Tremor was measured for 30 minutes following harmaline administration, and data were analyzed by fast Fourier transform and reported as a frequency power spectrum. […] Data were further analyzed by calculating the percent Motion Power (% MP), defined as the power in the 9-13 Hz band divided by the total power across the spectrum (0-30 Hz) multiplied by 100.

`Cc1cc(C)n(-c2nc(NC3CCC(F)(F)CC3)cc(N3CCOCC3)n2)n1` [Compound 1]: the “inhibition of tremors (tremor events)” value in data set [1] (60 mg/Kg orally) is reported as “significant inhibition of tremors”. Also, in data set [1], the “Minimally Efficacious Dose” value came to 60 mg/kg. In addition, in data set [2], the “Calculated Free Brain Concentration” value is 0.15 µM and the “Measured Brain Concentration” value amounted to 3.1 µM. Moreover, the fraction unbound (commonly free concentration divided by total concentration) at 5 h, 1 μM in data set [3] stood at 0.048.

Take `Cc1ccn(-c2nc(NC3CCC(F)(F)CC3)cc(N3CCOCC3)n2)n1` [Compound 2]: the “inhibition of tremors (tremor events)” value in data set [1] (30 mg/Kg orally) was “significant inhibition of tremors”. Also, the “Minimally Efficacious Dose” value in data set [1] came out at 30 mg/kg. The “Calculated Free Brain Concentration” value in data set [2] is 0.08 µM. For the same compound, the “Measured Brain Concentration” value in data set [2] turned out to be 1.3 µM. Moreover, the “tremor, power spectrum in 10-14 Hz band” value in data set [4] (3 mg/kg orally), in data set [4] (10 mg/kg orally) and in data set [4] (30 mg/kg orally) was “significantly reduced tremor” each time. Further, the “percent Motion Power (% MP)” value is listed as “significantly reduced harmaline-induced tremor” in data set [4] (3 mg/kg orally, n=8, P<0.01 vs harmaline+vehicle); “significantly reduced harmaline-induced tremor” in data set [4] (10 mg/kg orally, n=16, P<0.05 vs harmaline+vehicle); “significantly reduced harmaline-induced tremor” in data set [4] (30 mg/kg orally, n=13, P<0.05 vs harmaline+vehicle).
